In brackets after ≈: the same amount, converted by molar mass.
Target: T1, angiotensin-converting enzyme (ACE)
T1 construct: enzyme of the commercial ACE-kit WST (Dojin / Dojindo)
Assay: ACE-kit WST, microplate absorbance
Format: biochemical
Details: measured on HPLC fraction Fr. B isolated from fermented kelp extract, identified as D-Trp; pH and temperature not given

## N[C@H](Cc1c[nH]c2ccccc12)C(=O)O [D-Trp]
  IC50: 73 µg/mL (≈ 357 µM)

— article PMC8470367, “Antihypertensive and Probiotic Effects of Hidakakombu (Saccharina angustata) Fermented by Lacticaseibacillus casei 001” (Foods, 2021)
